Where “and” joins values, the source holds several entries; their conditions need not be identical. Equal values may be shown once. Read-outs that look alike come from different tables or passages of the source.
Columns and labels:
AChE = settings: cited from earlier work; for i2 for thioflavin T with A-site ligand: ternary complex with thioflavin T
recombinant human AChE = recombinant human AChE (Homo sapiens, UniProt P22303); assay type: biochemical; settings: for k12 + k21: 15.6 μM thioflavin T; for k122: two-component fit, minor component E2
Chain of recombinant human AChE (P22303 32-614): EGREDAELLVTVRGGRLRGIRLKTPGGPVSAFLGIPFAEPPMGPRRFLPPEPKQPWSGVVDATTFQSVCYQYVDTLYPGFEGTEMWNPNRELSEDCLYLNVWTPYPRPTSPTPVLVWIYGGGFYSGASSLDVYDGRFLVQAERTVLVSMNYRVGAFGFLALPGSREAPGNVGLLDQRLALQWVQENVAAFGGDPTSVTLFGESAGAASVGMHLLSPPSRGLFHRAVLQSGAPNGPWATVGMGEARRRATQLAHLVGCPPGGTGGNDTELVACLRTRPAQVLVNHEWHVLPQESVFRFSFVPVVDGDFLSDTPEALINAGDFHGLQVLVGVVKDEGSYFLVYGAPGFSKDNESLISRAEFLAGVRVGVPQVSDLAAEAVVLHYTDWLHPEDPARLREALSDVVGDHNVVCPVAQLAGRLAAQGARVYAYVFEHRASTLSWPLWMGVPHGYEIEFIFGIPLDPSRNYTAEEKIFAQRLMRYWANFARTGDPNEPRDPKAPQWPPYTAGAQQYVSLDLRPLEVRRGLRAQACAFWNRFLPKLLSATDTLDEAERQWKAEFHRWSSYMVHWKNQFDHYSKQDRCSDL

[1] = target: free AChE (E), recombinant human AChE (Homo sapiens, UniProt P22303); settings: cited from earlier work
Chain of free AChE (E), recombinant human AChE (P22303 32-614): as above

carbamoylated AChE (EC) = carbamoylated AChE (EC) (Homo sapiens, UniProt P22303); test: Carbachol binding to carbamoylated AChE
Chain of carbamoylated AChE (EC) (P22303 32-574 limits assumed): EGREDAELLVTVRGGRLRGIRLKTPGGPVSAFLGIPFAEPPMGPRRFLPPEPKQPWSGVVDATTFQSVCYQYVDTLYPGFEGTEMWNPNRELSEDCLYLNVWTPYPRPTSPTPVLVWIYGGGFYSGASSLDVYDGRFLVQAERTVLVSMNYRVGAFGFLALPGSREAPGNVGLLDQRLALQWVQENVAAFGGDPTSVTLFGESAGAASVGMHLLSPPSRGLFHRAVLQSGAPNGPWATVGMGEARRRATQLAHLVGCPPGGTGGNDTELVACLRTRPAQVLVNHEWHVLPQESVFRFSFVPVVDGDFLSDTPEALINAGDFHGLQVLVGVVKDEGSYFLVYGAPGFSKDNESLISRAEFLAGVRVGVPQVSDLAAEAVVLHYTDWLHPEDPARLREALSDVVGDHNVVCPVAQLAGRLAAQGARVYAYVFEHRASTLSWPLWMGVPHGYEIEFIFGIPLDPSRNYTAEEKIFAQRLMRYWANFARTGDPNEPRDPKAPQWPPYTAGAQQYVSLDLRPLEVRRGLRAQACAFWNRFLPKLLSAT

[2] = maximum parameter range fit, i fixed at 1e-6
[3] = maximum parameter range fit, iKs fixed at 12 mM
[4] = maximum parameter range fit, iEC fixed at 1e-6
[5] = maximum parameter range fit, iECKECS fixed at 8 mM

## CC(=O)Nc1cccc([N+](C)(C)C)c1 [ATMA, 3-(acetamido)-N,N,N-trimethylanilinium]
AChE; ternary complex with propidium
  i2 for propidium with A-site ligand: 9.5
AChE
  i2 for thioflavin T with A-site ligand: 3.1

## C[N+](C)(C)CCOC(N)=O [carbachol, carbamoylcholine chloride]
Recombinant human AChE; 1.67 mM carbachol, one-component fit (eq 6)
  k12 + k21: 5.94 ± 0.02 min⁻¹
Recombinant human AChE; 1.67 mM carbachol, two-component fit (eq A2)
  k12 + k21: 6.53 ± 0.02 min⁻¹
Recombinant human AChE; 1.67 mM carbachol
  k122: 0.68 ± 0.04
Recombinant human AChE; 60 mM carbachol, one-component fit (eq 6)
  k12 + k21: 23.8 ± 0.3 min⁻¹
Recombinant human AChE; 60 mM carbachol, two-component fit (eq A2)
  k12 + k21: 27.0 ± 0.4 min⁻¹
Recombinant human AChE; 60 mM carbachol
  k122: 4.3 ± 0.3
[1]
  i: 0.92
[1]; [2]
  fEL/fESL: 1.50
  i2: 1.08
[1]; [3]
  fEL/fESL: 1.50
  i: 1.59
  i2: 0.42
[1]; one-site fit, (iKS)^−1 fixed at 0
  fEL/fESL: 1.85
[1]; read-out: iKs, P-site in E, i2 fixed at 0.90
  Kd: 26000 ± 4000 µM
Carbamoylated AChE (EC)
  iEC: 1.23
Carbamoylated AChE (EC); KECM+S, combined binding to A- and P-sites in EC, iEC2 fixed at 0.90
  Kd: 1700 ± 400 µM
Carbamoylated AChE (EC); KECM+S, maximum parameter range fit, iEC fixed at 1e-6
  Kd: 1660 µM
Carbamoylated AChE (EC); KECM+S, maximum parameter range fit, iECKECS fixed at 8 mM
  Kd: 1660 µM
Carbamoylated AChE (EC); KECM, A-site in EC, iEC2 fixed at 0.90
  Kd: 1800 ± 500 µM
Carbamoylated AChE (EC); KECM, maximum parameter range fit, iEC fixed at 1e-6
  Kd: 1660 µM
Carbamoylated AChE (EC); for the three sets in Tables 1 and 2
  fECSL/fESL: 1.14 ± 0.03
Carbamoylated AChE (EC); from fECL/fECSL
  increase of fluorescence of bound thioflavin T when carbachol bound to the A-site in ternary complex with EC: about 20%
Carbamoylated AChE (EC); iEC2 fixed at 0.90
  fECL/fECSL: 0.83 and 0.83 ± 0.01
Carbamoylated AChE (EC); iECKECS, P-site in EC, iEC2 fixed at 0.90
  Kd: 32000 ± 2000 µM
Carbamoylated AChE (EC); iECKECS, maximum parameter range fit, iEC fixed at 1e-6
  Kd: 34000 µM
Carbamoylated AChE (EC); [4]
  fECL/fECSL: 0.83
  iEC2: 0.96
Carbamoylated AChE (EC); [5]
  fECL/fECSL: 0.83
  iEC: 3.5
  iEC2: 0.21

## CC[N+](C)(C)c1cccc(O)c1 [edrophonium]
AChE
  i2 for thioflavin T with A-site ligand: 1.12

Reference: article PMC2655144 (Biochemistry, 2008)
